Source: publication PMC9841589, “Identification of 2-Aminoacyl-1,3,4-thiadiazoles as Prostaglandin E2 and Leukotriene Biosynthesis Inhibitors” (ACS Medicinal Chemistry Letters, 2022)

Experiments:
[1] = system: zymosan-induced peritonitis; assay: Zymosan-induced peritonitis in mice; assay type: in vivo, mouse
Experimental: Figure 5 Effect of compound 3 in zymosan-induced peritonitis in mice. Mice were randomly divided into different experimental groups: control group (Ctrl), model group (zymosan + vehicle compound 3), zymosan + compound 3 (i.p. injection 30 min after i.p. injection of zymosan) group, and zymosan + dexamethasone (i.p. injection 30 min after i.p. injection of zymosan) group. At (A) 4 and (B) 24 h after injection, peritoneal exudate from each mouse was recovered, and the total cell number was evaluated. Results are expressed as mean ± SD. For statistical analysis see SI.
Figure 6 Analysis of cytokine levels collected in the peritoneal exudate of mice from different experimental groups: (A, B) IL-1β, (C, D) IL-6, (E, F) PGE2, and (G, H) IL-10. Results (normalized to exudate levels) are expressed as mean ± SD. For statistical analysis see SI.
Induction of peritonitis in mice and Enzyme-Linked Immunosorbent Assay (ELISA)
To examine the anti-inflammatory action of compound 3, we next evaluated the biological activity of
compound 3 in a mouse model of zymosan-induced peritonitis, as as previously described. 13,14 26, 27
To this aim, mice were randomly divided into different experimental groups: control group (Ctrl),
model group (zymosan + vehicle compound 3), zymosan + compound 3 (0.1, 1, and 10 mg/kg), and
zymosan + dexamethasone (3 mg/kg) group. Animals received the selected compound or
dexamethasone intraperitoneally (i.p.) 30 min after i.p. injection of zymosan (500 mg/kg)26, 27. Ctrl
and model groups received an equal volume of vehicle (PBS or DMSO/saline 1:3, respectively).
Peritoneal exudates were collected at selected time points (4 and 24 h) by washing the cavity with 2
mL of PBS. Then cell number of lavage fluids was determined by TC10 automated cell counter (Bio-
Rad, Milan, Italy) using disposable slides. The remaining lavage fluids were centrifuged at 3000 rpm
for 20 min at 4 °C, and supernatants were frozen at −80 °C for further ELISA analysis according to
the manufacturer instructions (eBioscience Co., San Diego, CA, USA)10 23 of IL-1β, IL-6, PGE 2 and
IL-10 following the procedure previously described15-17 28-30. Dexamethasone and zymosan A were
purchased from Sigma-Aldrich (Milan, Italy). DMSO was purchased from Merck (Italy). Unless
otherwise stated, all the other reagents were purchased from Carlo Erba (Milan, Italy).
The data and statistical analysis in this study comply with the international recommendations on
experimental design and analysis in preclinical pharmacology18-2031-33. The results obtained were
expressed as the mean ± S.D. or as mean ± S.E.M., as reported in detail in the figure legends. IC 50
values were calculated by nonlinear regression using GraphPad Prism Version 8.0 software (San
Diego, CA) one site binding competition. Statistical evaluation of the data was performed by one-

[2] = target: T1, Human recombinant 5-LO (Homo sapiens, UniProt P09917); assay: Cell-free 5-LO activity assay; assay type: biochemical; conditions: percentage of uninhibited control (100%), n = 3; n.i.: no inhibitory activity observed
T1 construct: made in house; host or cells: E. coli BL21 transformed with pT3-5-LO plasmid
T1 sequence (P09917 1-674): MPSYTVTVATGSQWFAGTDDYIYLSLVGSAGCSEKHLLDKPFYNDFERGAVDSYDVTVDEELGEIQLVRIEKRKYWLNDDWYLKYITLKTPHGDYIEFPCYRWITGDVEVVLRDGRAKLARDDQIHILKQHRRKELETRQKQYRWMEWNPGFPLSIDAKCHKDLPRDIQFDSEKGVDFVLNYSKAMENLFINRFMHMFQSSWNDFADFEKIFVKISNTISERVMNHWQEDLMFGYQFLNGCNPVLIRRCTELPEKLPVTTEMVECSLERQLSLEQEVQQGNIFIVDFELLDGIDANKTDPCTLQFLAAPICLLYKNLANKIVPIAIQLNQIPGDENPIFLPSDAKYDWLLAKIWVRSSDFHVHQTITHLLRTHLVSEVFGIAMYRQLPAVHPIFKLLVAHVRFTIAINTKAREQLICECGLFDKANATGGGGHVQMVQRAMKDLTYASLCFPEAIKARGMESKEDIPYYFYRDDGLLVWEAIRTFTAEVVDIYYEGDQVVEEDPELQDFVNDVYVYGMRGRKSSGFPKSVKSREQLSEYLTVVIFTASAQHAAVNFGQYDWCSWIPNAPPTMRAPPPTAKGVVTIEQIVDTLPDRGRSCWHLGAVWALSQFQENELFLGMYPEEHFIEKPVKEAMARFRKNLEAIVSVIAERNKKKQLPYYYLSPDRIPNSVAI
Experimental: mM glutathione, and 250 mM sucrose) and the protein concentration was defined. Potassium phosphate buffer (0.1 M, pH = 7.4) plus glutathione (2.5 mM) was added to dilute microsomes, which were then seeded in a 96-well plate. Test compounds 1-9 (10 µM) or DMSO (1%) were added and preincubated for 15 min on ice. MK886 (10 µM) and MD-52 (1 µM) were used as reference drugs.
The reactions started by adding 20 µM of PGH2, and 1 min later, 100 µl of a solution containing FeCl3 (40 mM), citric acid (80 mM), and 11β-PGE 2 (10 µM) were added for stopping the conversion of PGH2. After the extraction of PGE2 and 11β-PGE 2 (internal stardard) by solid-phase extraction, the quantity of product formation (PGE2) was determined by RP-HPLC.114
Cell-free 5-LO activity assay
Human recombinant 5-LO was expressed in E.coli BL21 transformed with pT3-5-LO plasmid at 30 °C overnight 15.2 A lysis buffer (50 mM triethanolamine, pH = 8.0, 5 mM EDTA, 1 mM phenylmethanesulfonyl fluoride, 60 µg/mL soybean trypsin inhibitor, 2 mM dithiothreitol and lysozyme) was added. […] Finally, a solid-phase extraction then was performed using C18 RP-columns (100 mg, UCT, Bristol, PA, USA) and RP-HPLC was used to quantify 5-LOX products.3 16 The 5-LO inhibitor zileuton (3 µM) was used as positive control. […]

[3] = 10 mg/kg i.p., 4 h (P ≤ 0.05) and 24 h (P ≤ 0.01)

SMILES	leucocyte recruitment (total cell number in peritoneal exudate) ([1]; 1 mg/kg i.p., 4 and 24 h, P ≤ 0.05)	leucocyte recruitment (total cell number in peritoneal exudate) ([1]; 10 mg/kg i.p. 30 min after zymosan, 4 h, P ≤ 0.05)	leucocyte recruitment (total cell number in peritoneal exudate) ([1]; 10 mg/kg i.p. 30 min after zymosan, 24 h, P ≤ 0.01)	IL-10 level in peritoneal exudate ([1]; 10 mg/kg i.p., 4 and 24 h)	PGE2 level in peritoneal exudate ([1]; 10 mg/kg i.p., 4 and 24 h (P ≤ 0.01))	IL-1β level in peritoneal exudate [1, 3]	IL-6 level in peritoneal exudate [1, 3]	5-LO residual activity (%) [2]
O=C(Nc1nnc(-c2ccc(-c3cccc(O)c3)cc2)s1)c1ccccc1Br [compound 3]	remarkable effect	reduced	reduced	modulated only at 24 h	significantly reduced	significantly reduced	significantly reduced	n.i. (125) %
Nc1ccccc1-c1ccc(-c2nnc(NC(=O)c3c(Cl)ccnc3Cl)s2)cc1 [compound 9]								n.i. (75.9) %
